Patent US20220202943A1, “TOPICAL COMPOSITIONS FOR SKIN COMPRISING A CELL PENETRATING PEPTIDE AND METHODS OF USING THE SAME” (ImDerma Laboratories Co. Ltd., priority 2020, published 2022)
Where no end group is shown, it is not given here.

Legend:
Assay type in all cases: cell-based, human
HaCaT cells [1] = test: Cell viability of HaCaT cells, MTT assay; conditions: 1.0 μM peptide X
Protocol: (§1) Following the removal of DMEM medium in the 96-well plate, 100 uL of 1 μM peptide X and 100 uL of tea polyphenols (0.01%, 0.05% or 0.1%), were added in the 96-well plate. After 2, 4, 6, 16 or 24 hours of reaction, the peptide X and tea polyphenols were removed and then DMEM medium with 1.2 mM H2O2 was added for 2 hours of reaction in dark to induce intracellular ROS in the HaCaT cells. After the above reaction, DMEM medium with 1.2 mM H2O2 was removed from the 96-well plate and 100 μL of 10 μM DCFDA (2′,7′—dichlorofluorescin diacetate) was added for half an hour of reaction to measure the levels of intracellular ROS in HaCaT cells using fluorescence assay. Following the removal of DCFDA, the treated cells were washed with 200 μL of PBS. Subsequently, after PBS was removed, 100 μL of transparent DMEM medium was added and absorbance at 488/520 nm was measured to determinate the levels of intracellular ROS. After the above measurement, the transparent DMEM medium was removed and then 100 μL of 1 mg/mL MTT was added for 2 hours of reaction; subsequently, the absorbance at 595 nm was measured for calculating the cell viability.
EUK134™ (0.12 μM, 0.23 μM or 2.35 μM) or a mixture of peptide X (1 μM) and EUK134™ (0.12 μM or 0.23 μM), were added in HaCaT cells for 8 hours of reaction. […]

type I pro-collagen = test: Type I pro-collagen level in Hs68 cells, ELISA; conditions: TGF-β 10 ng/mL
Protocol: In order to confirm if the peptide X is capable of delivering TGF-β into skin cells, Hs68 cells were seeded in a 6-well plate. Following the removal the medium in the 6-well plate, TGF-β (10 ng/mL), peptide X (1.0 μM) or a mixture of TGF-β (10 ng/mL) and peptide X (1.0 μM) were added in the 6-well plate. After 6, 12 or 24 hours of reaction, the level of type I pro-collagen in the cells was confirmed using ELISA kit with human pro-collagen 1 alpha 1 capture antibody and human pro-collagen 1 alpha 1 detector antibody.

HaCaT cells [2] = test: Intracellular ROS induced by H2O2 in HaCaT cells, DCFDA fluorescence assay
Protocol: as §1
EUK134™ (0.12 μM, 0.23 μM or 2.35 μM) or a mixture of peptide X (1 μM) and EUK134™ (0.12 μM or 0.23 μM), were added in HaCaT cells for 8 hours of reaction. Following the removal of EUK134™ and the mixture of peptide X and EUK134™, 1.2 mM H2O2 was added to induce intracellular ROS in the HaCaT cells and then the levels of intracellular ROS were detected using DCFDA. After the detection of the levels of intracellular ROS, the cell viability was confirmed using MTT assay.
Resveratrol (6.25 μM, 12.5 μM or 25 μM) or a mixture of peptide X (1 μM) and resveratrol (6.25 μM, 12.5 μM or 25 μM), were added in HaCaT cells for different time of reaction. Following the removal of resveratrol and the mixture of peptide X and resveratrol, 1.2 mM H2O2 was added to induce intracellular ROS in the HaCaT cells and then the levels of intracellular ROS were detected using DCFDA. After the detection of the levels of intracellular ROS, the cell viability was confirmed using MTT assay.

With “NYRWRCKNQN [peptide X, Asn-Tyr-Arg-Trp-Arg-Cys-Lys-Asn-Gln-Asn]” the “cytotoxicity to HaCaT cells” value (HaCaT cells [1]) was “no cytotoxicity”.
For TGF-β, the “increase of expression of type I pro-collagen” value (type I pro-collagen) was ~20%.
With `Oc1ccc(/C=C/c2cc(O)cc(O)c2)cc1` [resveratrol, reference compound] the “reduction of level of intracellular ROS induced by H2O2” value (HaCaT cells [2]; resveratrol 6.25, 12.5 or 25 μM without peptide X, no significant difference among concentrations) was 75˜80%.
In the case of “ethylbisiminomethylguaiacol manganese chloride [EUK134™]”, the “reduction of level of intracellular ROS induced by H2O2” value (HaCaT cells [2]; 0.12 μM EUK134 without peptide X, 8 hours of treatment) is reported as 50%, the “reduction of level of intracellular ROS” value (HaCaT cells [2]; 0.23 μM EUK134 without peptide X, 8 hours of treatment) is reported as 50% and the “level of intracellular ROS induced by H2O2” value (HaCaT cells [2]; EUK134 0.12, 0.23 or 2.35 μM without peptide X, with the increase of concentration, 8 hours) is reported as “slightly decreased”.
